These results are taken from patent US20060116389A1, “Antibacterial oxazolidinones” (ASTRA ZENECA AB, priority 2002, published 2006).

Common to all, as to format: cell-based
The subject of assay [1] is Staphylococcus aureus MRQR (methicillin resistant and quinolone resistant). The experiment in a line: MIC, agar-dilution, standard in-vitro test system. The settings on record: 10^4 CFU/spot, 37° C., 24 hours. The protocol:
(§1) The following results were obtained on a standard in-vitro test system. The activity is described in terms of the minimum inhibitory concentration (MIC) determined by the agar-dilution technique with an inoculum size of 10^4 CFU/spot. Typically, compounds are active in the range 0.01 to 256 μg/ml.
(§2) Staphylococci were tested on agar, using an inoculum of 10^4 CFU/spot and an incubation temperature of 37° C. for 24 hours—standard test conditions for the expression of methicillin resistance.

In assay [2] the test system is Staphylococcus aureus MSQS (methicillin sensitive and quinolone sensitive). The experiment in a line: MIC, agar-dilution, standard in-vitro test system. The settings on record: 10^4 CFU/spot, 37° C., 24 hours. As for the experimental part:
as §1, §2

The subject of another assay is Enterococcus faecium. The experiment in a line: MIC, agar supplemented with 5% defibrinated horse blood. The conditions noted are these: agar + 5% horse blood, 10^4 CFU/spot, 37° C., 5% carbon dioxide, 48 hours. As for the experimental part: as §1
(§3) Streptococci and enterococci were tested on agar supplemented with 5% defibrinated horse blood, an inoculum of 10^4 CFU/spot and an incubation temperature of 37° C. in an atmosphere of 5% carbon dioxide for 48 hours—blood is required for the growth of some of the test organisms. Fastidious Gram negative organisms were tested in Mueller-Hinton broth, supplemented with hemin and NAD, grown aerobically for 24 hours at 37° C., and with an innoculum of 5×10^4 CFU/well.

Assay [3] deals with Linezolid Resistant Streptococcus pneumoniae. The assay is described as above. The settings on record: agar + 5% horse blood, 48 hours. The protocol:
as §1, §3

The subject of the next assay is Streptococcus pneumoniae. The assay is described as above. The conditions noted are these: agar + 5% horse blood, 10^4 CFU/spot, 37° C., 5% carbon dioxide, 48 hours. The protocol:
as §1, §3

Another assay deals with Haemophilus influenzae. The experiment in a line: MIC, Mueller-Hinton broth supplemented with hemin and NAD. The conditions noted are these: 24 hours, 37° C., 5×10^4 CFU/well. The protocol: as §1, §3
A further assay relates to Moraxella catarrhalis. The description is as above. The conditions noted are these: 24 hours, 37° C., 5×10^4 CFU/well. The protocol: as §1, §3

≈ marks a conversion by molar mass, not a printed value.

For the compound `Cn1nnc(-c2ccc(-c3ccc(N4C[C@H](CNc5ccon5)OC4=O)cc3F)cn2)n1` [Example 2], the MIC came to 0.5 µg/mL (≈ 1.15 µM) in assay [1]; 0.5 µg/mL (≈ 1.15 µM) in assay [2]; 0.5 µg/mL in the assay with Enterococcus faecium; 2 µg/mL in assay [3]; 0.13 µg/mL in the assay on Streptococcus pneumoniae; 64 µg/mL (≈ 147 µM) against Haemophilus influenzae. The same compound displayed an MIC against Moraxella catarrhalis of 0.5 µg/mL (≈ 1.15 µM).
